Data taken from patent US12077503B2, “Substituted cyclic amides and their use as herbicides” (FMC CORPORATION, priority 2015, dated 2024).

Tests used:
Assay type in all cases: in vivo
Kochia (Kochia scoparia) [1] = assay: Test A postemergence
In short: (§1)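 Seeded soil received test chemicals as a preemergence directed spray, and seedlings at one to two leaves, 2–10 cm tall, received them postemergence, in a non-phytotoxic, surfactant-containing solvent mixture. Pots were held in a greenhouse for approximately 10 d, then rated for injury from 0, no effect, to 100, complete control.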

[2] = test system: wheat (Triticum aestivum); assay: Test A postemergence
In short: as §1

[3] = test system: barnyardgrass (Echinochloa crus-galli); assay: Test A postemergence
In short: as §1

[4] = test system: Galium (catchweed bedstraw, Galium aparine); assay: Test A postemergence
In short: as §1

[5] = test system: ragweed (common ragweed, Ambrosia elatior); assay: Test A postemergence
In short: as §1

[6] = test system: giant foxtail (Setaria faberii); assay: Test A postemergence
In short: as §1

[7] = test system: ryegrass, Italian (Italian ryegrass, Lolium multiflorum); assay: Test A postemergence
In short: as §1

corn (Zea mays) = assay: Test A postemergence
In short: as §1

[8] = test system: blackgrass (Alopecurus myosuroides); assay: Test A postemergence
In short: as §1

[9] = test system: pigweed (Amaranthus retroflexus); assay: Test A postemergence
In short: as §1

rice (Oryra sativa) = assay: Test B flooded paddy test; details: Flood, 0 to 100 scale where 0 is no effect and 100 is complete control, 13 to 15 d
In short: (§2)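 Flooding to 3 cm over soil accompanied treatment, which consisted of adding compound to the standing water around 2-leaf plants; depth was then maintained. Visual assessment versus controls followed at 13 to 15 d (scale 0–100, 0 meaning no effect).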

[10] = test system: barnyardgrass (Echinochloa crus-galli); assay: Test B flooded paddy test; details: Flood, 0 to 100 scale where 0 is no effect and 100 is complete control, 13 to 15 d
In short: as §2

[11] = test system: sedge, umbrella (small-flower umbrella sedge, Cyperus difformis); assay: Test B flooded paddy test; details: Flood, 0 to 100 scale where 0 is no effect and 100 is complete control, 13 to 15 d
In short: as §2

[12] = test system: ducksalad (Heteranthera limosa); assay: Test B flooded paddy test; details: Flood, 0 to 100 scale where 0 is no effect and 100 is complete control, 13 to 15 d
In short: as §2

Kochia (Kochia scoparia) [13] = assay: Test A preemergence; details: for Kochia plant response rating (0 to 100 scale, 0 is no effect, 100 is complete control): visual injury approx. 10 d
In short: as §1

[14] = test system: barnyardgrass (Echinochloa crus-galli); assay: Test A preemergence; details: for Barnyardgrass plant response rating (0 to 100 scale, 0 is no effect, 100 is complete control): visual injury approx. 10 d
In short: as §1

[15] = test system: ragweed (common ragweed, Ambrosia elatior); assay: Test A preemergence; details: for Ragweed plant response rating (0 to 100 scale, 0 is no effect, 100 is complete control): visual injury approx. 10 d
In short: as §1

[16] = test system: giant foxtail (Setaria faberii); assay: Test A preemergence; details: for Foxtail, Giant plant response rating (0 to 100 scale, 0 is no effect, 100 is complete control): visual injury approx. 10 d
In short: as §1

[17] = test system: ryegrass, Italian (Italian ryegrass, Lolium multiflorum); assay: Test A preemergence; details: for Ryegrass, Italian plant response rating (0 to 100 scale, 0 is no effect, 100 is complete control): visual injury approx. 10 d
In short: as §1

[18] = test system: pigweed (Amaranthus retroflexus); assay: Test A preemergence; details: for Pigweed plant response rating (0 to 100 scale, 0 is no effect, 100 is complete control): visual injury approx. 10 d
[19] = 125 g ai/ha, postemergence, visual rating after approx. 10 d, 0 to 100 scale (0 no effect, 100 complete control)
[20] = Postemergence, 500 g ai/ha, 0 to 100 scale where 0 is no effect and 100 is complete control
[21] = 125 g ai/ha, Preemergence, visual injury after approximately 10 d, 0 to 100 scale where 0 is no effect and 100 is complete control
[22] = 500 g ai/ha, postemergence, 0 to 100 scale, 0 no effect, 100 complete control
[23] = Postemergence, 125 g ai/ha, visual injury, 0 to 100 scale (0 no effect, 100 complete control), approx. 10 d
[24] = 125 g ai/ha, preemergence, 0 to 100 scale (0 no effect, 100 complete control)
[25] = Preemergence, 500 g ai/ha, 0 is no effect, 100 is complete control
[26] = 125 g ai/ha, postemergence, visual injury rating on 0 to 100 scale (0 no effect, 100 complete control), approx. 10 d
[27] = 125 g ai/ha, postemergence, visual injury after approximately 10 d, 0 to 100 scale (0 no effect, 100 complete control)
[28] = 500 g ai/ha, postemergence, visual injury, 0 to 100 scale (0 no effect, 100 complete control), approx. 10 d
[29] = 125 g ai/ha, preemergence, visual rating after approx. 10 d, 0 to 100 scale where 0 is no effect and 100 is complete control
[30] = 500 g ai/ha, preemergence, 0 to 100 scale, 0 = no effect, 100 = complete control

O=C1NCC(c2cc(F)c(F)cc2F)C1C(=O)Nc1ccccc1F (racemic) [Compound 549]
0: Plant response rating, Kochia (Kochia (Kochia scoparia) [1]; [19]) | Plant response rating, Wheat [2, 19] | Plant response rating, Galium [4, 19] | Plant response rating, Galium [4, 20] | Plant response rating, Ragweed [5, 19] | Plant response rating, Ragweed [5, 20] | Plant response rating, Ryegrass, Italian [7, 19] | Plant response rating, Ryegrass, Italian [7, 20] | Plant response rating, Corn (corn (Zea mays); [19]) | Plant response rating, Corn (corn (Zea mays); [20]) | Plant response rating, Blackgrass [8, 19] | Plant response rating, Pigweed [9, 19] | Plant response rating, Pigweed [9, 20] | Plant response rating, Rice (rice (Oryra sativa); 250 g ai/ha) | Plant response rating, Sedge, Umbrella ([11]; 250 g ai/ha) | Plant response rating, Kochia (Kochia (Kochia scoparia) [13]; [21]) | Kochia plant response rating (0 to 100 scale, 0 is no effect, 100 is complete control) (Kochia (Kochia scoparia) [13]; Preemergence, 500 g ai/ha) | Plant response rating, Ragweed [15, 21] | Ragweed plant response rating (0 to 100 scale, 0 is no effect, 100 is complete control) ([15]; Preemergence, 500 g ai/ha) | Plant response rating, Ryegrass, Italian [17, 21] | Ryegrass, Italian plant response rating (0 to 100 scale, 0 is no effect, 100 is complete control) ([17]; Preemergence, 500 g ai/ha) | Plant response rating, Pigweed [18, 21] | Pigweed plant response rating (0 to 100 scale, 0 is no effect, 100 is complete control) ([18]; Preemergence, 500 g ai/ha)
20: Plant response rating, Kochia (Kochia (Kochia scoparia) [1]; [20]) | Plant response rating, Wheat [2, 20] | Plant response rating, Foxtail, Giant [6, 19] | Plant response rating, Blackgrass [8, 20]
90: Plant response rating, Barnyardgrass [3, 20] | Plant response rating, Foxtail, Giant [6, 20] | Plant response rating, Ducksalad ([12]; 250 g ai/ha) | Plant response rating, Foxtail, Giant [16, 21] | Foxtail, Giant plant response rating (0 to 100 scale, 0 is no effect, 100 is complete control) ([16]; Preemergence, 500 g ai/ha)
25: Plant response rating, Barnyardgrass ([10]; 250 g ai/ha)
80: Barnyardgrass plant response rating (0 to 100 scale, 0 is no effect, 100 is complete control) ([14]; Preemergence, 500 g ai/ha)
40: Plant response rating, Barnyardgrass [3, 19] | Plant response rating, Barnyardgrass [14, 21]

O=C1NCC(c2ccccc2-c2ccccc2)C1C(=O)Nc1ccccc1F (racemic) [Compound 381]
20: Plant response rating, Foxtail, Giant [6, 22] | Barnyardgrass plant response rating (0 to 100 scale) [14, 25]
0: Plant response rating, Kochia (Kochia (Kochia scoparia) [1]; [22]) | Plant response rating, Kochia (Kochia (Kochia scoparia) [1]; [23]) | Plant response rating, Wheat [2, 22] | Plant response rating, Wheat [2, 23] | Plant response rating, Barnyardgrass [3, 23] | Plant response rating, Galium [4, 22] | Plant response rating, Galium [4, 23] | Plant response rating, Ragweed [5, 22] | Plant response rating, Ragweed [5, 23] | Plant response rating, Foxtail, Giant [6, 23] | Plant response rating, Ryegrass, Italian [7, 22] | Plant response rating, Ryegrass, Italian [7, 23] | Plant response rating, Corn (corn (Zea mays); [22]) | Plant response rating, Corn (corn (Zea mays); [23]) | Plant response rating, Blackgrass [8, 22] | Plant response rating, Blackgrass [8, 23] | Plant response rating, Pigweed [9, 22] | Plant response rating, Pigweed [9, 23] | Plant response rating, Rice (rice (Oryra sativa); 250 g ai/ha) | Plant response rating, Barnyardgrass ([10]; 250 g ai/ha) | Plant response rating, Sedge, Umbrella ([11]; 250 g ai/ha) | Plant response rating, Ducksalad ([12]; 250 g ai/ha) | Plant response rating, Kochia (Kochia (Kochia scoparia) [13]; [24]) | Kochia plant response rating (0 to 100 scale) (Kochia (Kochia scoparia) [13]; [25]) | Plant response rating, Barnyardgrass [14, 24] | Plant response rating, Ragweed [15, 24] | Ragweed plant response rating (0 to 100 scale) [15, 25] | Plant response rating, Foxtail, Giant [16, 24] | Plant response rating, Ryegrass, Italian [17, 24] | Ryegrass, Italian plant response rating (0 to 100 scale) [17, 25] | Plant response rating, Pigweed [18, 24] | Pigweed plant response rating (0 to 100 scale) [18, 25]
30: Plant response rating, Barnyardgrass [3, 22] | Foxtail, Giant plant response rating (0 to 100 scale) [16, 25]

COc1c(F)ccc(NC(=O)C2C(=O)NCC2c2cc(F)cc(F)c2)c1F (racemic) [Compound 541]
0: Plant response rating, Kochia (Kochia (Kochia scoparia) [1]; [19]) | Plant response rating, Ragweed [5, 19] | Plant response rating, Corn (corn (Zea mays); [19]) | Plant response rating, Pigweed [9, 19] | Plant response rating, Pigweed [9, 20] | Plant response rating, Rice (rice (Oryra sativa); 250 g ai/ha) | Plant response rating, Sedge, Umbrella ([11]; 250 g ai/ha) | Plant response rating, Kochia (Kochia (Kochia scoparia) [13]; [21]) | Plant response rating, Ragweed [15, 21] | Ragweed plant response rating (0 to 100 scale, 0 is no effect, 100 is complete control) ([15]; Preemergence, 500 g ai/ha) | Plant response rating, Ryegrass, Italian [17, 21] | Plant response rating, Pigweed [18, 21] | Pigweed plant response rating (0 to 100 scale, 0 is no effect, 100 is complete control) ([18]; Preemergence, 500 g ai/ha)
60: Plant response rating, Corn (corn (Zea mays); [20]) | Plant response rating, Blackgrass [8, 20]
50: Plant response rating, Galium [4, 20]
80: Plant response rating, Wheat [2, 20] | Plant response rating, Foxtail, Giant [6, 19]
75: Plant response rating, Ducksalad ([12]; 250 g ai/ha)
35: Plant response rating, Barnyardgrass ([10]; 250 g ai/ha)
20: Plant response rating, Wheat [2, 19] | Plant response rating, Ryegrass, Italian [7, 19] | Kochia plant response rating (0 to 100 scale, 0 is no effect, 100 is complete control) (Kochia (Kochia scoparia) [13]; Preemergence, 500 g ai/ha) | Ryegrass, Italian plant response rating (0 to 100 scale, 0 is no effect, 100 is complete control) ([17]; Preemergence, 500 g ai/ha)
30: Plant response rating, Kochia (Kochia (Kochia scoparia) [1]; [20]) | Plant response rating, Galium [4, 19] | Plant response rating, Ragweed [5, 20] | Blackgrass plant response rating [8, 26]
90: Barnyardgrass plant response rating [3, 26] | Plant response rating, Barnyardgrass [3, 20] | Plant response rating, Foxtail, Giant [6, 20] | Plant response rating, Barnyardgrass [14, 21] | Barnyardgrass plant response rating (0 to 100 scale, 0 is no effect, 100 is complete control) ([14]; Preemergence, 500 g ai/ha) | Plant response rating, Foxtail, Giant [16, 21] | Foxtail, Giant plant response rating (0 to 100 scale, 0 is no effect, 100 is complete control) ([16]; Preemergence, 500 g ai/ha)
40: Plant response rating, Ryegrass, Italian [7, 20]

COC(=O)c1ccccc1NC(=O)C1C(=O)NCC1c1cccc(C(F)(F)F)c1 (racemic) [Compound 705]
0: Plant response rating, Kochia (Kochia (Kochia scoparia) [1]; [27]) | Plant response rating, Kochia (Kochia (Kochia scoparia) [1]; [28]) | Plant response rating, Wheat [2, 27] | Plant response rating, Wheat [2, 28] | Plant response rating, Barnyardgrass [3, 27] | Plant response rating, Barnyardgrass [3, 28] | Plant response rating, Galium [4, 27] | Plant response rating, Galium [4, 28] | Plant response rating, Ragweed [5, 27] | Plant response rating, Ragweed [5, 28] | Plant response rating, Foxtail, Giant [6, 27] | Plant response rating, Foxtail, Giant [6, 28] | Plant response rating, Ryegrass, Italian [7, 27] | Plant response rating, Ryegrass, Italian [7, 28] | Plant response rating, Corn (corn (Zea mays); [27]) | Plant response rating, Corn (corn (Zea mays); [28]) | Plant response rating, Blackgrass [8, 27] | Plant response rating, Blackgrass [8, 28] | Plant response rating, Pigweed [9, 27] | Plant response rating, Pigweed [9, 28] | Plant response rating, Rice (rice (Oryra sativa); 500 g ai/ha) | Plant response rating, Barnyardgrass ([10]; 500 g ai/ha) | Plant response rating, Sedge, Umbrella ([11]; 500 g ai/ha) | Plant response rating, Ducksalad ([12]; 500 g ai/ha) | Plant response rating, Kochia (Kochia (Kochia scoparia) [13]; [29]) | Plant response rating, Kochia (Kochia (Kochia scoparia) [13]; [30]) | Plant response rating, Barnyardgrass [14, 29] | Plant response rating, Barnyardgrass [14, 30] | Plant response rating, Ragweed [15, 29] | Plant response rating, Ragweed [15, 30] | Plant response rating, Foxtail, Giant [16, 29] | Plant response rating, Foxtail, Giant [16, 30] | Plant response rating, Ryegrass, Italian [17, 29] | Plant response rating, Ryegrass, Italian [17, 30] | Plant response rating, Pigweed [18, 29] | Plant response rating, Pigweed [18, 30]
